For 119 sequences, remaining target (mRNA or protein) (fraction of control) results are on record in the OligoGym collection.

These antisense oligonucleotides have a phosphorothioate backbone; sugars and methylation of C are not fully specified.
Also: test concentration or dose not given here.

The target of one data set is SRA1. The following applies: ASO.
Sequence AAAACAGACTCCTCTTTT showed a remaining target (mRNA or protein) (fraction of control) of 0.54.
AAACTTGTGGGCTCCACG: the remaining target (mRNA or protein) (fraction of control) was 0.18.
Sequence AACCGAGGATTATGAAGC yielded a remaining target (mRNA or protein) (fraction of control) of 0.57.
The same measure, in the same setting: for AACTGCGGCGGGTCGTTC the value was at least 1; for AACTTTCCTCCAGCCCAC, 0.21; for AAGGAGGTGGAGGCCCCA, 0.72.
Same read-out and setting: for ACACATGAACTCCCTCTG the value was 0.77; for ACATACCTGCTTCCTTGT, at least 1.
For ACATGGTCAACCATGAGG, the remaining target (mRNA or protein) (fraction of control) was determined as 0.54.
ACCACTCCCCACAGGTGG showed a remaining target (mRNA or protein) (fraction of control) of at least 1.
ACCATCCACTGACTGACC: the remaining target (mRNA or protein) (fraction of control) was at least 1.
The same measure, in the same setting: for ACCCTCTTGGTAAGCAGC the value was at least 1; for ACCTGCTTCCTTGTGTGG, 0.32.
The same measure, in the same setting: then ACGCCAGAGGCAGGACCA, with 0.55; and ACTGGGAAACTTGTGGGC, with at least 1; and AGAGGCAGGACCACTCCC, with 0.92.
Take AGCGGTGGATGTCATCTG: the remaining target (mRNA or protein) (fraction of control) stood at 0.65.
For the sequence AGGCCCAGGAGAAGTCTC, the remaining target (mRNA or protein) (fraction of control) was 0.61.
AGTCGAGCCTCAGACTCG: the remaining target (mRNA or protein) (fraction of control) was 0.72.
Still for that read-out and setting: for ATCCTCCATCAGTCGAGC the value was at least 1; for ATCTGCTGCGTCCCACCG, 0.9; for ATGAGGGAGCGGTGGATG, at least 1.
The same measure, in the same setting: then ATGCATGTTATGAGTAAC, with at least 1.
Still for that read-out and setting: for ATTTGAGGAGATGGTGTC the value was 0.94; for CAACTTTCCTCCAGCCCA, 0.41.
For the sequence CAATGCCTGTTCCAAAGG, the remaining target (mRNA or protein) (fraction of control) stood at 0.91.
On to CAGAGGTTTGCAGATACA, for which the remaining target (mRNA or protein) (fraction of control) turned out to be 0.35.
In turn, CAGCACATCCTCCATCAG had a remaining target (mRNA or protein) (fraction of control) of 0.61.
Same read-out and setting: for CAGGGAGCAGGGCAGTCG the value was 0.35; for CAGTGCCAGGCGTCGGCT, 0.66.
For the sequence CATCACATACCTGCTTCC, the remaining target (mRNA or protein) (fraction of control) worked out at 0.68.
Same read-out and setting: then CATCCAAACACAGCTGCT, with 0.39.
The same measure, in the same setting: for CATGGTCAACCATGAGGG the value was at least 1; for CCACCGGTGGCTTGAAAG, 0.85; for CCAGCAGATCCCTTCCTG, at least 1.
On the same count and under the same terms, then CCAGCCGCGTTCCTTGTT, with 0.69.
Take CCAGTAGAGCCATTCTCT: the remaining target (mRNA or protein) (fraction of control) worked out at 0.83.

Biological target in a further data set: not given
The following applies: ASO.
The sequence GCCCGCACGGAGCCCTGC showed a remaining target (mRNA or protein) (fraction of control) of 0.81.
Still for that read-out and setting: then GCCCTTTGCTTTCCAGAG, with at least 1; and GCGCGTCCGGTGCTCCCA, with 0.75.
GCTCCAGCAGCAGCAGCC displayed a remaining target (mRNA or protein) (fraction of control) of 0.94.
The sequence GCTCCCATCCTCGTCGCC showed a remaining target (mRNA or protein) (fraction of control) of at least 1.
GCTGTGTCTCTGGGCATC registered a remaining target (mRNA or protein) (fraction of control) of at least 1.
Sequence GCTTCCTGTCCATCACTG showed a remaining target (mRNA or protein) (fraction of control) of 0.71.
The same measure, in the same setting: then GCTTGAAGAAATGTTTTA, with at least 1; and GCTTGAGTGCTGGGAACA, with at least 1; and GGAAACTGAGTCAAGCAA, with 0.62.
As to GGAGTGCATAAGAGGCCACA, the remaining target (mRNA or protein) (fraction of control) is 0.56.
Same read-out and setting: then GGATCCTGTTGATCTCCT, with at least 1.
On the same count and under the same terms, then GGCAAGGCTTGAGTGCTG, with 0.42; and GGCGAAGCTGATGCGGAC, with at least 1.
Still for that read-out and setting: for GGCGGCCTTCTCATCCTC the value was 0.96; for GGCTCAGAAGGACTTCCTGG, 0.65.
The sequence GGCTGCGGAGCACGTCCT yielded a remaining target (mRNA or protein) (fraction of control) of 0.54.
GGCTGCTGAGAATCTGAA gave a remaining target (mRNA or protein) (fraction of control) of 0.78.
Still for that read-out and setting: for GGGAGTTGACGAAGATGG the value was 0.96; for GGGCCCAAAAGCAGCAGC, 0.89.
The same measure, in the same setting: for GGGGTGGTGGAGTGCATAAG the value was 0.9; for GGGTCCGTTCCCTCAACA, at least 1.
Sequence GGTAGGTCGTAGAAGATG gave a remaining target (mRNA or protein) (fraction of control) of at least 1.
The same measure, in the same setting: for GGTGGTGGAGTGCATAAGAG the value was 0.98; for GTAAGTCCAGGAGATAGC, 0.86; for GTAGATGAGGGCGATCAC, at least 1.
GTCCAGCCACTGCAGTGGCC returned a remaining target (mRNA or protein) (fraction of control) of 0.82.
Same read-out and setting: then GTCCAGGTAGCGGGCGAG, with at least 1.
On the same count and under the same terms, then GTCCCAGAACCCTGCCCA, with at least 1.
GTCCCCCGACTCCCTTGC yielded a remaining target (mRNA or protein) (fraction of control) of 0.27.
As to GTCCCTGCACCCCTAGTC, the remaining target (mRNA or protein) (fraction of control) is at least 1.
In turn, GTCTTCAGTGTTTTCATT registered a remaining target (mRNA or protein) (fraction of control) of at least 1.
On the same count and under the same terms, then GTGGAGTGCATAAGAGGCCA, with 0.84; and GTGGTTGCGTGCCGATTCAC, with 0.5.
On the same count and under the same terms, then GTGTAGTGGCTGAAAAGG, with at least 1.
Same read-out and setting: for GTTCATTCCATTCAGTTG the value was 0.87; for GTTCCAGGATAGTCCCAA, 0.34.
Regarding GTTGATCTCGTCCAGGTA, the remaining target (mRNA or protein) (fraction of control) is 0.28.
Still for that read-out and setting: for TAAGAGGCCACAGCAGGCTC the value was 0.42.
TAGATGCACTTGGAGCGA came in with a remaining target (mRNA or protein) (fraction of control) of at least 1.
The same measure, in the same setting: for TATTATCGAGTGACTGGT the value was at least 1; for TCAACTTCTTTTGCCGAA, 0.62; for TCACAGCAGGTTGATCTC, at least 1.
The same measure, in the same setting: for TCAGCATCCTGCTTAGGG the value was at least 1; for TCATGGCCCGCATGGACA, 0.7.
Same read-out and setting: for TCCATTTCTTACGCTCTG the value was at least 1; for TCCCAGGGTGTGCGTCAC, at least 1.
In turn, TCCTTGCCTGAAACACCC came in with a remaining target (mRNA or protein) (fraction of control) of at least 1.
Regarding TCGGCGGTGGCAAGGCTT, the remaining target (mRNA or protein) (fraction of control) stood at 0.97.
For TCTCCTCCAGGCACTGGT, the remaining target (mRNA or protein) (fraction of control) was 0.18.
Sequence TCTCCTTCATGCGGTTCT returned a remaining target (mRNA or protein) (fraction of control) of 0.61.
In turn, TGAAGATGAATCTCAATCCA came in with a remaining target (mRNA or protein) (fraction of control) of 0.88.
TGATTTCTTCACCTTTTC returned a remaining target (mRNA or protein) (fraction of control) of at least 1.
In the case of TGCACCAGTGGCTCGGCT, the remaining target (mRNA or protein) (fraction of control) was at least 1.
Still for that read-out and setting: then TGCATAAGAGGCCACAGCAG, with 0.44; and TGCGCTCCTCCTCCGAGT, with at least 1; and TGCTGTCACTCACGCACTCG, with 0.57.
Still for that read-out and setting: then TGCTTGTGGGCCGCGATT, with 0.24; and TGGAGAGATAGACCAGGA, with 0.67.
Regarding TGGGGGTGGTGGAGTGCATA, the remaining target (mRNA or protein) (fraction of control) was 0.53.
The same measure, in the same setting: for TGGTGGAGTGCATAAGAGGC the value was 0.47.
Still for that read-out and setting: then TGTCCTGGTGAGAGGCAG, with 0.73.
As for TGTCTGGGTCCACCGTGC, the remaining target (mRNA or protein) (fraction of control) was 0.45.
Same read-out and setting: for TGTGGGCCGAGGCTGGAG the value was 0.85; for TGTTAAGACACTGAAGAAAT, at least 1.
Still for that read-out and setting: for TTACGCTCTGACTTCTGG the value was 0.81.
Same read-out and setting: then TTATAAGCCAAAGTGCGT, with at least 1.
TTATTCATACCGTTGTTG registered a remaining target (mRNA or protein) (fraction of control) of 0.96.
TTCAAGTCTTCTTCCAAT had a remaining target (mRNA or protein) (fraction of control) of 0.85.
Still for that read-out and setting: then TTCAATGGCTTCCACGAG, with 0.94; and TTCGCCGCACCGACTCGC, with 0.9; and TTCTCATCCTCCGTCAGG, with at least 1.
In turn, TTCTCCTCCAGGCACTGG registered a remaining target (mRNA or protein) (fraction of control) of at least 1.
For TTCTCCTGTCCACTAGAG, the remaining target (mRNA or protein) (fraction of control) was determined as 0.98.
The same measure, in the same setting: then TTCTGGCACTTTCTATGA, with 0.72; and TTCTGTGTGTCTGTGGCA, with 0.19.
As for TTGCCCAACCACTCGTTC, the remaining target (mRNA or protein) (fraction of control) stood at 0.45.
Still for that read-out and setting: for TTGCTCTCGGGCCTGCTG the value was 0.21; for TTGGTATCGATAGCACTACA, 0.96.
Still for that read-out and setting: for TTTCTATCGTTGAGTTTCTG the value was at least 1; for TTTCTCATTGCCTTCACG, at least 1.
On the same count and under the same terms, then TTTCTGCACGGAGAAGCA, with 0.26.
